Measured values as given in publication PMC9181589, “Antamanide Analogs as Potential Inhibitors of Tyrosinase” (International Journal of Molecular Sciences, 2022).
“Also recorded” adds a separate entry of the source.

Tests used:
mushroom tyrosinase = assay: Tyrosinase inhibition, UV-Vis spectroscopic method (L-Tyr oxidation by tyrosinase/O2); type: biochemical
Source text: The capability of peptides to inhibit the activity of tyrosinase has been evaluated by a UV-Vis spectroscopic method monitoring the changes in the UV-Vis spectrum of its natural substrate, L-Tyr. […] The addition of enzyme firstly hydroxylated the L-Tyr residue to dihydroxyphenylalanine (DOPA) and successively oxidized DOPA to dopaquinone, which is then converted to dopachrome (Scheme 2). Both DOPA and dopaquinone appearance can be detected by the change in the UV-Vis spectrum. The hydroxylation of L-Tyr to DOPA is characterized by an increase in the intensity of the band at 275 nm and the appearance of an additional band at about 304 nm, while the oxidation to dopaquinone is made detectable by the appearance of a band at 470–490 nm. […] This phase is related to the monophenolase activity of the enzyme and essentially is due to the low amount of the oxy form of the tyrosinase enzyme in the commercially available preparation. Although other various factors may play an important role, including substrate and enzyme concentration, enzyme source, pH of the medium, and presence of hydrogen donors such as DOPA or other catechols, also the presence of transition metal ions can influence the presence and the length of this lag-phase.
Millimolar peptide stock solutions were prepared in DMSO and then diluted to μM concentration by buffer in UV cells. […] The capability of peptides to inhibit the tyrosinase activity was evaluated at two different peptide concentrations, 2 and 0.2 µM.
The capability of cyclic peptides to inhibit the oxidation of Tyr by the tyrosinase/O2 oxidizing system was monitored by means of a UV-Vis spectroscopy method, carried out in a Shimadzu UV-Visible UV-2501 spectral spectrophotometer using Helma (Mülheim, Germany) duple chambers UV-cell (2 × 4.375 mm). Briefly, 880 µL of a Tyr solution (2 mM) and 900 µL of a mushroom tyrosinase solution (2000 U/mL, Sigma-Aldrich), both dissolved in 50 mM phosphate buffer (pH 6.8), were separately introduced in the duple UV-cell chambers. A total of 20 µL of an appropriate DMSO stock solution of inhibitors (1.8, 0.18, or 0.018 mM) were added to the chamber containing the Tyr solution. The tyrosinase activity in absence of inhibitors was detected by adding 20 µL of DMSO. A background UV-Vis spectrum was acquired in the 250–800 nm wavelength range with a 2.0 nm slit and fast speed before starting the reaction. Thereafter, the solutions were mixed, and UV-Vis spectra were acquired at different time points after mixing. Three replicates were performed for each experiment. Data processing was performed with UV Probe (Shimazdu, Kyoto, Japan) and OriginPro 2019 (v. 9.60) software (OriginLab Corporation, Northampton, MA, USA).
Purchased mushroom tyrosinase was used without further purification. […] The concentration of the two solution was determined spectrophotometrically (εTyr at 274.6 nm = 1.420; εtyrosinase at 280 nm = 1.426).
Tyrosinase-dependent diphenol and o-quinone formation was assessed as the appearance of a characteristic absorption band at about 304 and 477 nm, respectively. The inhibition activity was determined according to the following equation [33, 34]:% inhibition = 1 − [(D − C)/(B − A)] ∗ 100 where C and D are the absorbance values at either 304 or 477 nm in presence of inhibitor before mixing and upon reaching the maximum absorbance, respectively, while A and B are the corresponding values in absence of inhibitor.

B16F10 metastatic cells = details: after 24 h of treatment; cited from earlier work
Source text: In the past years, we evaluated the chemical and biological activities of the cyclic decapeptide antamanide, firstly isolated from the lipophilic fraction of an extract of Amanite phalloides by the T. Wieland’s group in 1962 [3]. A characteristic of this peptide is its ability to form complexes of high stability with metal ions, including Na^+, K^+, Ca^2+, Tl^3+, and others. A close correlation has been found between the ion binding properties and the selectivity for Na^+ over K^+ with its antitoxic activity against phallotoxins and the prevention of their accumulation ... || Antamanide is a cyclic decapeptide isolated from the lipophilic fraction of an extract of the green toadstool Amanite phalloides, able to form complexes of high stability with different metal ions. In order to improve the hydrophilicity of this peptide, the Phe residue at either the six or nine positions was replaced with a Gly residue.

[1] = cited from earlier work
Source text: Antamanide is a cyclic decapeptide isolated from the lipophilic fraction of an extract of the green toadstool Amanite phalloides, able to form complexes of high stability with different metal ions. In order to improve the hydrophilicity of this peptide, the Phe residue at either the six or nine positions was replaced with a Gly residue.

Substance | effects on tyrosinase activity (mushroom tyrosinase; antamanide concentration 20 µM, data not shown) | tyrosinase inhibitory activity (mushroom tyrosinase; peptide 2 and 0.2 µM from DMSO stock, L-Tyr substrate, 50 mM phosphate buffer pH 6.8, UV-Vis at 304 and 477 nm, three replicates) | cell proliferation of metastatic melanoma cell line (B16F10 metastatic cells) | ions selectivity [1] | dependence of tyrosinase inhibitory activity on peptide concentration (mushroom tyrosinase; 2 versus 0.2 µM (Figure 4)) | inhibitory activity towards the hydroxylation of tyrosine (mushroom tyrosinase; calculated at 303 nm, peptide 2 and 0.2 µM, 50 mM phosphate buffer pH 6.8) | inhibition of the oxidation of DOPA to dopaquinone (mushroom tyrosinase; calculated at 477 nm, peptide 2 and 0.2 µM, 50 mM phosphate buffer pH 6.8, three replicates)
antamanide | absence of effects | did not inhibit; also recorded: No inhibitory activity; also recorded: not able to inhibit | significant reduction of cell proliferation | Ca > Na >> K | – | – | –
pseudostellarin A [PS-A] | – | – | – | – | lower when the concentration was higher | low activity | about 30%
